The structures appear in SMILES notation.

Results on 18 compounds are retold here after US20160068514A1, “HALO AND TRIFLUOROMETHYL SUBSTITUTED OREXIN RECEPTOR ANTAGONISTS” (MERCK SHARP & DOHME CORP., priority 2013, published 2016).

The target in experiment [1] is T1, human orexin-2 receptor (hOX2R) (Homo sapiens, UniProt O43614).
T1 construct: expressed in transfected cells; host or cells: Chinese hamster ovary (CHO) cells
T1 sequence (O43614 1-444): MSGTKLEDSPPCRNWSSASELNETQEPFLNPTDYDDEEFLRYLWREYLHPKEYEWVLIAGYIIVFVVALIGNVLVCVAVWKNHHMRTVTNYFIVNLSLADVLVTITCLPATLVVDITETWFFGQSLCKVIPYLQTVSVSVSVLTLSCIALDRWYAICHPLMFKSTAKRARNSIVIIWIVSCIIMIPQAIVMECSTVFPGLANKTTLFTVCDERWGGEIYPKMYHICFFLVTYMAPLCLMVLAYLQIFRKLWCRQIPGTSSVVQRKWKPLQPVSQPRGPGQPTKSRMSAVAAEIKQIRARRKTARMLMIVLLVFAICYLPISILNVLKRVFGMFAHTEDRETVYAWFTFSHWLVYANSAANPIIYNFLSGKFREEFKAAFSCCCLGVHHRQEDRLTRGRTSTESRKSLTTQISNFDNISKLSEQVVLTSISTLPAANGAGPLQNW
Kind of experiment: FLIPR Ca2+ Flux Assay, hOX2R. The experiment is classed as cell-based. Conditions: CHO cells expressing hOX2R; agonist Ala-6,12 human orexin-A 70 pM. The source says:
(§1) The utility of the compounds in accordance with the present invention as orexin receptor OX1R and/or OX2R antagonists may be readily determined without undue experimentation by methodology well known in the art, including the “FLIPR Ca^2+ Flux Assay” (Okumura et al., Biochem. Biophys. Res. Comm. 2001, 280:976-981). Briefly, for intracellular calcium measurements, Chinese hamster ovary (CHO) cells expressing the orexin-1 receptor (e.g., rat or human) or the orexin-2 receptor (e.g., rat or human), are grown in Iscove's modified DMEM containing 2 mM L-glutamine, […], 1% hypoxanthine-thymidine supplement, 100 U/ml penicillin, 100 μg/ml streptomycin and 10% heat-inactivated fetal calf serum (FCS). The cells are seeded at approximately 20,000 cells per well into 384-well clear bottom sterile plates coated with poly-D-lysine. The seeded plates are incubated overnight at 37° C. and 5% CO2. Human ala-6,12 orexin-A can be used as the agonist and prepared as a 1 mM stock solution in 1% bovine serum albumin (BSA) and diluted in assay buffer (HBSS containing 20 mM HEPES, 0.1% BSA and 2.5 mM probenecid, pH7.4) for use in the assay at a final concentration of 70 pM. Test compounds are prepared as 10 mM stock solution in DMSO, then diluted in 384-well plates, first in DMSO, then in assay buffer. On the day of the assay, cells are washed 3 times with 100 μl assay buffer and then incubated for 60 minutes (37° C., 5% CO2) in 60 μl assay buffer containing 1 μM Fluo-4AM ester, 0.02% pluronic acid, and 1% BSA. The dye loading solution is then aspirated and cells are washed 3 times with 100 μl assay buffer. 30 μl of that same buffer is left in each well. Within the Fluorescent Imaging Plate Reader (FLIPR, Molecular Devices), test compounds are added to the plate in a volume of 25 μl, incubated for 5 minutes, and then 25 μl of agonist is added. Fluorescence is measured for each well at 1 second intervals for 5 minutes, and the height of each fluorescence peak is compared to the height of the fluorescence peak induced by 70 pM of agonist ala-6,12 orexin-A with buffer in place of test compound. IC50 value for the test compound is determined to be the concentration of compound needed to inhibit 50% of the agonist response. Alternatively, compound potency can be assessed using a radioligand binding assay (described in Bergman et. al. Bioorg. Med. Chem. Lett. 2008, 18:1425-1430) in which the inhibition constant (Ki) is determined in membranes prepared from CHO cells expressing either the OX1 or OX2 receptor. The intrinsic orexin receptor antagonist activity of a compound of the present invention may be determined by these assays.
(§2) Chinese hamster ovary (CHO) cells expressing the human orexin-1 receptor (hOX1R) or the human orexin-2 receptor (hOX2R) were grown in Iscove's modified DMEM containing 2 mM L-glutamine, […], 1% hypoxanthine-thymidine supplement, 100 U/ml penicillin, 100 μg/ml streptomycin and 10% heat-inactivated fetal calf serum (FCS). The cells were seeded at −20,000 cells/well into Becton-Dickinson black 384-well clear bottom sterile plates coated with poly-D-lysine. All reagents were from GIBCO-Invitrogen Corp. The seeded plates were incubated overnight at 37° C. and 5% CO2. Ala-6,12 human orexin-A, used as the agonist, was prepared as a 1 mM stock solution in 1% bovine serum albumin (BSA) and diluted in assay buffer (HBSS containing 20 mM HEPES, 0.1% BSA and 2.5 mM probenecid, pH7.4) for use in the assay at a final concentration of 70 pM. Test compounds were prepared as 10 mM stock solution in DMSO, then diluted in 384-well plates, first in DMSO, then assay buffer.
(§3) On the day of the assay, cells were washed 3× with 100 μl assay buffer and then incubated for 60 minutes (37° C., 5% CO2) in 60 μl assay buffer containing 1 μM Fluo-4AM ester, 0.02% pluronic acid, and 1% BSA. The dye loading solution was then aspirated and cells were washed 3× with 100 μl assay buffer. 30 μl of that same buffer was left in each well. […]
(A change in cytosolic calcium serves as a functional read-out for many receptors and channels.)

In experiment [2] the target is T2, human orexin-1 receptor (hOX1R) (Homo sapiens, UniProt O43613).
T2 construct: expressed in transfected cells; host or cells: Chinese hamster ovary (CHO) cells
T2 sequence (O43613 1-425): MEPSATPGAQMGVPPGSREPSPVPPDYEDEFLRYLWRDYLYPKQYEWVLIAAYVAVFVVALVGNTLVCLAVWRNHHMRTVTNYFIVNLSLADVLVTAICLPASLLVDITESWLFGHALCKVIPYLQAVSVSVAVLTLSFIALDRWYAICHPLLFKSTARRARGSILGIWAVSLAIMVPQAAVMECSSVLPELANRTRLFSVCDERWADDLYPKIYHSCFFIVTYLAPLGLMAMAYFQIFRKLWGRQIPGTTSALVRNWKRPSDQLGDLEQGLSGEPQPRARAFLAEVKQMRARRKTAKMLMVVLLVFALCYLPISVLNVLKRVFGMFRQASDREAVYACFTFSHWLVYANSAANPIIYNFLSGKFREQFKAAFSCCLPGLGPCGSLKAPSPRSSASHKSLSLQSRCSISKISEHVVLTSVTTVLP
Kind of experiment: FLIPR Ca2+ Flux Assay, hOX1R. In kind it is cell-based. The settings on record: CHO cells expressing hOX1R; agonist Ala-6,12 human orexin-A 70 pM.
Text: as §1, §2, §3

In general, IC50 refers to the concentration that inhibits the measured activity by half. Read a low IC50 as greater potency in that assay. As for `COc1ccc(C(=O)N2C[C@H](Oc3nccc(I)c3OC)CC[C@H]2C)c(-n2nccn2)n1` [Example 8, 4-iodo-3-methoxy-2-{[(3R,6R)-1-{[6-methoxy-2-(2H-1,2,3-triazol-2-yl)pyridin-3-yl]carbonyl}-6-methylpiperidin-3-yl]oxy}pyridine], the IC50 in experiment [1] was found to be 49.3 nM; in experiment [2] it was 2500 nM.
As to `C[C@@H]1CC[C@@H](Oc2cc(C(F)(F)F)ccn2)CN1C(=O)c1ccccc1-n1nccn1` [Example 3, 2-{[(3R,6R)-6-methyl-1-{[2-(2H-1,2,3-triazol-2-yl)phenyl]carbonyl}piperidin-3-yl]oxy}-4-(trifluoromethyl)pyridine], the values for the IC50 in experiment [1] and in experiment [2] were 17.8 nM and 377 nM, respectively.
Take `C[C@@H]1CC[C@@H](Oc2cc(C(F)(F)F)ccn2)CN1C(=O)c1ccccc1-n1ncnn1` [Example 6, 2-{[(3R,6R)-6-Methyl-1-{[2-(2H-tetrazol-2-yl)phenyl]carbonyl}piperidin-3-yl]oxy}-4-(trifluoromethyl)pyridine]: the IC50 in experiment [1] stood at 10 nM; in experiment [2], 828 nM.
Regarding `COc1ccc(C(=O)N2C[C@H](Oc3cc(Cl)ccn3)CC[C@H]2C)c(-n2nccn2)n1` [Example 7, 3-({(2R,5R)-5-[(4-chloropyridin-2-yl)oxy]-2-methylpiperidin-1-yl}carbonyl)-6-methoxy-2-(2H-1,2,3-triazol-2-yl)pyridine], in experiment [1], the IC50 turned out to be 85.7 nM.
As to `C[C@@H]1CC[C@@H](Oc2nccc(C(F)(F)F)c2F)CN1C(=O)c1ccccc1-n1nccn1` [Example 1, 3-Fluoro-2-{[(3R,6R)-6-methyl-1-{[2-(2H-1,2,3-triazol-2-yl)phenyl]carbonyl}piperidin-3-yl]oxy}-4-(trifluoromethyl)pyridine], the IC50 in experiment [1] came out at 38.5 nM; in experiment [2], 839 nM.
As for `C[C@@H]1CC[C@@H](Oc2cc(Cl)ccn2)CN1C(=O)c1ccccc1-n1nccn1` [Example 15, 4-Chloro-2-{[(3R,6R)-6-methyl-1-{[2-(2H-1,2,3-triazol-2-yl)phenyl]carbonyl}piperidin-3-yl]oxy}pyridine], the IC50 in experiment [1] amounted to 10.8 nM; in experiment [2], 548 nM.
In the case of `COc1ccc(C(=O)N2C[C@H](Oc3cc(F)ccn3)CC[C@H]2C)c(-n2nccn2)n1` [Example 13, 3-({(2R,5R)-5-[(4-fluoropyridin-2-yl)oxy]-2-methylpiperidin-1-yl}carbonyl)-6-methoxy-2-(2H-1,2,3-triazol-2-yl)pyridine], the IC50 in experiment [1] worked out at 467 nM.
On the same count and under the same terms, for `C[C@@H]1CC[C@@H](Oc2cccc(F)c2)CN1C(=O)c1ccccc1-n1nccn1` [Example 18, (2R,5R)-5-(3-fluorophenoxy)-2-methyl-1-{[2-(2H-1,2,3-triazol-2-yl)phenyl]carbonyl}piperidine] the value was 132 nM.
Turning to `C[C@@H]1CC[C@@H](Oc2cc(Br)ccn2)CN1C(=O)c1ccccc1-n1ncnn1` [Example 12, 4-bromo-2-{[(3R,6R)-6-methyl-1-{[2-(2H-tetrazol-2-yl)phenyl]carbonyl}piperidin-3-yl]oxy}pyridine], the IC50 stood at 10 nM in experiment [1] and 986 nM in experiment [2].
On the same counts, the results for `C[C@@H]1CC[C@@H](Oc2cc(F)ccn2)CN1C(=O)c1ccccc1-n1ncnn1` [Example 10, 4-fluoro-2-{[(3R,6R)-6-methyl-1-{[2-(2H-tetrazol-2-yl)phenyl]carbonyl}piperidin-3-yl]oxy}pyridine] are 55 nM and 3850 nM.
For `Cc1c(I)ccnc1O[C@@H]1CC[C@@H](C)N(C(=O)c2ccccc2-n2nccn2)C1` [Example 4, 4-iodo-3-methyl-2-{[(3R,6R)-6-methyl-1-{[2-(2H-1,2,3-triazol-2-yl)phenyl]carbonyl}piperidin-3-yl]oxy}pyridine], the IC50 was found to be 8.8 nM in experiment [1] and 118 nM in experiment [2].
The compound `COc1ccc(C(=O)N2C[C@H](Oc3nccc(C(F)(F)F)c3F)CC[C@H]2C)c(-n2nccn2)n1` [Example 2, 3-fluoro-2-{[(3R,6R)-1-{[6-methoxy-2-(2H-1,2,3-triazol-2-yl)pyridin-3-yl]carbonyl}-6-methylpiperidin-3-yl]oxy}-4-(trifluoromethyl)pyridine] showed an IC50 in experiment [1] of 105 nM.
Take `COc1ccc(C(=O)N2C[C@H](Oc3nccc(I)c3OC)CC[C@H]2C)c(-c2ncccn2)n1` [Example 14, 2-[3-({(2R,5R)-5-[(4-Iodo-3-methoxypyridin-2-yl)oxy]-2-methylpiperidin-1-yl}carbonyl)-6-methoxypyridin-2-yl]pyrimidine]: in experiment [1], the IC50 amounted to 78.7 nM.
`C[C@@H]1CC[C@@H](Oc2cc(Br)ccn2)CN1C(=O)c1ccccc1-n1nccn1` [Example 17, 4-bromo-2-{[(3R,6R)-6-methyl-1-{[2-(2H-1,2,3-triazol-2-yl)phenyl]carbonyl}piperidin-3-yl]oxy}pyridine]: the IC50 in experiment [1] came out at 3.8 nM; in experiment [2], 179 nM.
As for `C[C@@H]1CC[C@@H](Oc2cc(Cl)ccn2)CN1C(=O)c1ccccc1-n1ncnn1` [Example 11], the results for the IC50 in experiment [1] and in experiment [2] were 10 nM and 917 nM, respectively.
As for `C[C@@H]1CC[C@@H](Oc2cc(I)ccn2)CN1C(=O)c1ccccc1-n1nccn1` [Example 5, 4-iodo-2-{[(3R,6R)-6-methyl-1-{[2-(2H-1,2,3-triazol-2-yl)phenyl]carbonyl}piperidin-3-yl]oxy}pyridine], the IC50 in experiment [1] amounted to 7.3 nM; in experiment [2], 414 nM.
Consider `COc1ccc(C(=O)N2C[C@H](Oc3cc(Br)ccn3)CC[C@H]2C)c(-n2nccn2)n1` [Example 9, 3-({(2R,5R)-5-[(4-bromopyridin-2-yl)oxy]-2-methylpiperidin-1-yl}carbonyl)-6-methoxy-2-(2H-1,2,3-triazol-2-yl)pyridine], for which the IC50 in experiment [1] is 36.3 nM.
In the case of `C[C@@H]1CC[C@@H](Oc2cc(F)ccn2)CN1C(=O)c1ccccc1-n1nccn1` [Example 16, 4-fluoro-2-{[(3R,6R)-6-methyl-1-{[2-(2H-1,2,3-triazol-2-yl)phenyl]carbonyl}piperidin-3-yl]oxy}pyridine], the IC50 came out at 34 nM in experiment [1] and 2310 nM in experiment [2].
